Where a name gives a salt, the structure may show the parent alone. Read-outs that look alike come from different tables or passages of the source.
Legend:
[1] = cited from earlier work
[2] = pKa determination by potentiometric or spectrophotometric titration; format: physicochemical; settings: titration in 0.1 M NaCl at 22° C.
Experimental: The pKa values of ligands were determined by potentiometric titration when a ligand concentration greater than 1×10^−2 M in water could be prepared. In a typical experiment, the sample solution (2.67×10^−2 M) was prepared by the following method: Apo6619 (92.6 mg) was weighed into a 25-ml beaker, followed by the addition of 0.1 M NaCl (15 ml). The mixture was sonicated for 10 minutes to give a clear colorless solution. Nitrogen gas was then allowed to bubble through the solution. 1.000 N Hydrochloric acid (624 μl, 1.5 equivalent) was added to the solution to give pH 1.88. The solution was allowed to equilibrate at 22° C. for 60 minutes.
The solution was then titrated against 1.000 N NaOH at 22° C. to reach pH 11.8. For each addition of base, the solution was allowed to equilibrate until a constant pH reading was reached. The volume of the base added and the pH reading were recorded for each measurement. 137 measurements were taken to finish the experiment.
The data set of pH vs. base volume was analyzed using Hyperquad 2000 (Version 2.1, Peter Gans, University of Leeds).
The pKa values of ligands can be determined by spectrophotometric titration when both the conjugated acid and base absorb in the UV-Visible region. In a typical experiment, the sample solution was prepared by the following method: Apo6617 (0.792 mg) was weighed into an 80-ml beaker, followed by the addition of 0.1 M NaCl (50 ml). The mixture was sonicated for 5 minutes to give a clear colorless solution. Nitrogen gas was allowed to bubble through the solution. 1.000 N NaOH (50 μl) was added to give pH 10.9. The solution was allowed to equilibrate at 22° C. for 1 hour. A sipper system was used for the circulation of the sample solution between the beaker and the flow cell.
The sample solution was titrated against standard hydrochloric acid solutions at 22° C. to reach pH 1.40. After each addition of acid the solution was allowed to equilibrate until a constant pH reading was reached. The pH and the UV-Vis spectrum were recorded for each measurement. The peak wavelengths of the deprotonated species (L^−), the neutral species (LH), and the protonated species (LH2^+) were 314 nm, 281 nm, and 249 nm, respectively. In the region of pH>6, after each addition of acid there was a slight decrease in the absorbance at 314 nm and a slight increase at 281 nm in each spectrum, whereas in the region of pH<5, after each addition of acid there was a slight decrease in the absorbance at 281 nm and a slight increase at 249 nm in each spectrum. The solution was titrated until there was no obvious change in the spectra after several subsequent additions of acid. 116 measurements were taken to finish the experiment.
The resulting data set was then analyzed using pHAB (Peter Gans, University of Leeds).

[3] = Distribution coefficient determination (D7.4), 1-octanol / MOPS buffer; format: physicochemical; settings: 1-octanol / MOPS buffer pH 7.4
Experimental: MOPS buffer (50 mM, pH=7.4) and 1-octanol were used as the aqueous phase and the organic phase, respectively, for distribution coefficient determinations. The MOPS buffer and 1-octanol were pre-saturated with each other before use.
In a typical experiment, an organic stock solution of Apo6618 (1-cyclopropyl-3-hydroxy-6-methyl-4-oxo-1,4-dihydro-pyridine-2-carboxylic acid cyclopropylamide) was prepared by weighing out 0.50 mg of the compound into a 10-mL volumetric flask and bringing to volume with 1-octanol. The solution was then sonicated for 60 minutes so that the sample could dissolve completely. The concentration of the stock solution was calculated as C^0org=2.0×10^−4 M. The organic standard solution of Apo6618 with 2.0×10^−5 M was prepared in a 10-mL volumetric flask by 10 times dilution of the stock solution with 1-octanol. The sample solution was prepared in a 10-mL volumetric flask. The stock sample solution (3 ml) was pipetted into the flask followed by the addition of MOPS buffer (3 ml). The standard and sample solutions were then vortexed for 2 hours. After vortexing, the solutions were transferred to test tubes and centrifuged at 4000 rpm for 15 minutes. UV-Vis spectra were recorded for the standard solution and the organic (top) phase of the sample solution at 22° C. The distribution coefficient, D7.4, was calculated using the following equation: D7.4=[Aorg/(C^0orgεorg−Aorg)]×(Vaqu/Vorg)
Where εorg=the molar extinction coefficient of the peak wavelength (λmax) obtained from the UV-Vis spectrum of the organic standard solution; Aorg=absorbance of the organic phase in the sample solution at the same λmax; C^0org=the concentration of the stock solution; Vaqu=the volume of MOPS buffer in the sample solution; Vorg=the volume of the stock solution in the sample solution.

[4] = Metal complexation constants, Fe system (spectrophotometric titration; pM by Hyss); format: binding; settings: for Log β3: Fe(III) overall complexation constant; for pFe^3+: total iron 10^−6 M, ligand 10^−5 M, pH 7.4, calculated from experimental pKa and complexation constants
Experimental: Compounds of this invention are designed to improve properties to known deferiprone analogues. […]. The definition of pFe^3+ used herein is the concentration of ferric ion in solution when the total amount of iron equals 10^−6 M and the concentration of ligand is 10^−5 M and pH is 7.4. It is calculated using experimental determined pKa and metal complexation constants using Hyperquad software (Version 2.1, Peter Gans, University of Leeds). The lowering of the pKa value of the C3 phenolic OH to less than 8.8 ensures that a higher pFe^3+ value when combined with a favorable complexation constant β3. The concept of complexation is detailed below.
The stepwise and overall complexation constants of a bidentate ligand such as 3-hydroxy-4-pyridinone follow: Fe(III)+Ligand→Fe[Ligand]1K1 Fe[Ligand]1+Ligand→Fe[Ligand]2K2 Fe[Ligand]2+Ligand→Fe[Ligand]3K3 Complexation constant β3=K1.K2.K3
Stepwise formation constants for M^n+-ligand systems were determined by spectrophotometric titration when metal complexes have a strong absorbance in the visible region due to ligand to metal charge transfer. In a typical experiment, the sample solution was prepared according to the following method: Apo6619 (10.7 mg) was weighed into an 80-ml beaker, followed by the addition of 0.1 M NaCl (50 ml). The mixture was sonicated for 10 minutes to give a clear colorless solution. Iron stock solution (atomic absorption standard, Aldrich, 496 μl, 8.93E-06 moles) was pipetted into the solution followed by the addition of 1.000 N NaOH (137 μl). The molar ratio between the total iron and the total Apo6619 was 1:5.4. The mixture was allowed to equilibrate at room temperature overnight. Nitrogen was allowed to bubble through the solution. 1.000 N Hydrochloric acid (3 ml) was then added to the solution to give pH 1.5. The solution was allowed to equilibrate at 22° C. for 3 hours.
A sipper system was used for the circulation of the sample solution between the beaker and the flow cell.
The sample solution was titrated against standard NaOH solutions at 22° C. to reach pH 6.89. After each addition of base the solution was allowed to equilibrate until a constant pH reading was reached. The pH and the UV-Vis spectrum were recorded for each measurement. For each measurement enough base was added so that there was a slight increase in the absorbance of the spectrum. The solution was titrated until there was no obvious increase in the spectra after several subsequent additions of base. Altogether 64 measurements were taken to finish the experiment.
[…]; pM^n+ is defined as −log [M(H2O)m]^n+ at physiological conditions, i.e.: pH 7.4, a ligand concentration of 10 μM, and a metal concentration of 1 μM.
To calculate pM^n+ for a MLn system, βn and pKa values are needed (βn are the formation constants for M^n++n L^− ? MLn; pKa are the equilibrium constants for L^−+n H^+ ? LHn^(n−1)+). The pM^n+ can be calculated by using Hyss software (Hyperquad Stimulation and Speciation software: HYSS2© 2000 Protonic Sofware).

[5] = Redox potentials of iron complexes by cyclic voltammetry; format: physicochemical; settings: glassy carbon working electrode, 2.0 mM, pH 7.4; for E1/2 / Ep^ox / Ep^red: vs Ag/AgCl
[6] = U.S. Pat. No. 6,335,353; cited from earlier work

Row | Molecule | pKas (higher value, phenolic C3 OH) [2] | pKas (lower value, LH2+) [2] | D7.4 [3] | Log β3 [4] | pFe^3+ [4] | other results
1 | Fe-transferrin: iron bound to transferrin in human blood |  |  |  |  |  | E1/2 ([1]; vs. Ag/AgCl): −720 mv; E1/2 ([1]; vs. NHE): −500 mv
2 | Cc1cc(=O)c(O)c(C(=O)NC2CC2)n1C1CC1 [Apo6618, 1-Cyclopropyl-3-hydroxy-6-methyl-4-oxo-1,4-dihydro-pyridine-2-carboxylic Acid Cyclopropylamide] | 8.6 | 2.5 | 0.331 | 33.6 | 20.5 | 
3 | CC(=O)N([O-])CCCCCNC(=O)CCC(=O)N([O-])CCCCCNC(=O)CCC(=O)N([O-])CCCCCN.[Fe+3] [Fe(DFO)] |  |  |  |  |  | E1/2 literature value ([1]; vs Ag/AgCl, Crumbliss et al, Inorganic Chemistry 2003): −688 mV; ΔEp [5]: 112 mV; E1/2 [5]: −698 mV; Ep^ox [5]: −642 mV; Ep^red [5]: −754 mV
4 | Cc1cc(=O)c(O)c(C(=O)NC2CCCC2)n1C [Apo6620, N-cyclopentyl-3-hydroxy-1,6-dimethyl-4-oxo-1,4-dihydro-pyridine-2-carboxamide] | 8.7 | 2.7 | 0.78 | 33.8 | 20.3 | melting point: 289.3 °C (dec.)
5 | Cc1c([O-])c(=O)ccn1C.Cc1c([O-])c(=O)ccn1C.Cc1c([O-])c(=O)ccn1C.[Fe+3] [Fe(deferiprone)3] |  |  |  |  |  | ΔEp [5]: 107 mV; E1/2 [5]: −834 mV; Ep^ox [5]: −780 mV; Ep^red [5]: −887 mV
6 | Cc1cc(=O)c(O)c(C(=O)NC2CCC2)n1C [Apo6622, N-cyclobutyl-3-hydroxy-1,6-dimethyl-4-oxo-1,4-dihydropyridine-2-carboxamide] | 8.6 | 2.8 | 0.357 | 33.9 | 20.8 | 
7 | CNC(=O)c1c(O)c(=O)cc(C)n1C [CP502, 1,6-Dimethyl-3-hydroxy-4(1H)-pyridinone-2-carboxy-(N-methyl)-amide hydrochloride, reference compound] | 8.5 | 2.7 | 0.04 | 33.6 | 20.9 | O-glucuronidation at the C3 oxygen [6]: effectively blocked the O-glucuronidation
8 | Cc1cc(=O)c(O)c(C(=O)NC2CCCCC2)n1C [Apo6621, 3-Hydroxy-1,6-dimethyl-4-oxo-1,4-dihydro-pyridine-2-carboxylic Acid Cyclohexylamide] | 8.7 | 2.5 | 2.2 | 34.3 | 20.9 | 
